{
  "source": "paper PMC12322260",
  "about": "“Anticancer activity of triterpene glycosides from the sea star Solaster pacificus” (Scientific Reports, 2025)",
  "assay_type_in_all_cases": "cell-based, human",
  "key": {"22Rv1 cells [1]": {"tested_on": "22Rv1 cells", "test": "Drug combination MTT assay, SynergyFinder ZIP analysis", "settings": "22Rv1, 48 h", "protocol": "(§1) Fig. 5 Effects of CuC1 in combination with taxanes and platinum agents. PC3-DR and 22Rv1 cells were co-treated with cisplatin (Cis), carboplatin (Carbo), docetaxel (Doce), or cabazitaxel (Caba) in combination with CuC1 at the indicated concentrations for 48 h. Cellular viability was evaluated using the MTT assay (number of biological replicates n = 3.) and is represented in the Supplementary Table S2. The cytotoxic effects were further analyzed, and 3D heat maps were constructed using SynergyFinder 3.0 software. The drug effects in combination (synergistic, additive, or antagonistic) were analyzed and visualized using the ZIP algorithm and are indicated by δ-score. δ > 10: Synergistic interactions (dark red area); […]: additive effect; δ < − 10: Antagonistic interactions (dark green area). A ZIP synergy score represents a mean δ overall the concentration range used.\n(§2) The effect of combinational treatment with established chemotherapies was evaluated as previously reported^54. In brief, cells were exposed to individual drugs of their combinations for 48 h, and the viability was measured by MTT assay and was then analyzed using SynergyFinder 3.0 software (https://synergyfinder.fimm.fi) and the ZIP score algorithm. Statistical analysis was conducted automatically by the software using its inbuilt algorythms based on the input data type and size."}, "PC3-DR cells [2]": {"tested_on": "PC3-DR cells", "test": "Drug combination MTT assay, SynergyFinder ZIP analysis", "settings": "48 h", "protocol": "as §1, §2"}, "22Rv1 cells [3]": {"tested_on": "22Rv1 cells", "test": "MTT cytotoxicity assay", "settings": "22Rv1, 48 h, mean ± SD", "description": "(§3) The cell lines were purchased from ATCC (Manassas, VA, USA) or ECACC (Salisbury, UK). The following cell lines were used: Human prostate cancer cells LNCaP (ATCC; RRID:CVCL_0395), VCaP (ECACC; RRID:CVCL_2235), 22Rv1 (ATCC; RRID:CVCL_1045), PC3 (ATCC; RRID:CVCL_0035), and DU145 (ATCC; RRID:CVCL_0105); human prostate non-cancer cells PNT2 (ATCC; RRID:CVCL_2164) and RWPE-01 (ATCC; RRID:CVCL_3791). Human non-cancer embryonic kidney cells HEK293T (ECACC; RRID:CVCL_0063) and human fibroblast cells MRC-9 (ECACC; RRID:CVCL_2629). The docetaxel-resistant cells PC3-DR were generated by long-term treatment of human prostate cancer PC3 cells with sublethal concentrations of docetaxel as previously described[32] and were provided by Prof. Z. Culig (Innsbruck Medical University, Austria). All cell lines were recently authenticated by a commercial service (Multiplexion GmbH, Heidelberg, Germany) and were cultured as previously described[58],[59]. Cells were kept in culture for a maximum of three months and were routinely examined for bacterial, fungal, and mycoplasma infections."}, "DU145 cells": {"tested_on": "DU145 cells", "test": "MTT cytotoxicity assay", "settings": "DU145, 48 h, mean ± SD", "description": "as §3"}, "HEK293T cells": {"tested_on": "HEK293T cells", "test": "MTT cytotoxicity assay", "settings": "48 h, mean ± SD", "description": "as §3"}, "LNCaP cells": {"tested_on": "LNCaP cells", "test": "MTT cytotoxicity assay", "settings": "48 h, mean ± SD", "description": "as §3"}, "MRC-9 cells": {"tested_on": "MRC-9 cells", "test": "MTT cytotoxicity assay", "settings": "MRC-9, 48 h, mean ± SD", "description": "as §3"}, "PC3 cells": {"tested_on": "PC3 cells", "test": "MTT cytotoxicity assay", "settings": "PC3, 48 h, mean ± SD", "description": "as §3"}, "PC3-DR cells [4]": {"tested_on": "PC3-DR cells", "test": "MTT cytotoxicity assay", "settings": "48 h, mean ± SD", "description": "as §3"}, "PNT2 cells": {"tested_on": "PNT2 cells", "test": "MTT cytotoxicity assay", "settings": "PNT2, 48 h, mean ± SD", "description": "as §3"}, "RWPE-1 cells": {"tested_on": "RWPE-1 cells", "test": "MTT cytotoxicity assay", "settings": "RWPE-1, 48 h, mean ± SD", "description": "as §3"}, "VCaP cells": {"tested_on": "VCaP cells", "test": "MTT cytotoxicity assay", "settings": "48 h, mean ± SD", "description": "as §3"}, "[5]": {"tested_on": "non-cancer PNT2, RWPE-1, HEK293T, MRC-9 cells vs cancer PC3, 22Rv1, DU145, VCaP, LNCaP cells", "test": "Selectivity index from MTT IC50 values", "settings": "[mean IC50 in non-cancer cells] / [mean IC50 in cancer cells]; Doce IC50 in PNT2 and MRC-9 assumed 500 nM"}},
  "note": "“And” between values parts separate entries of the source, which are not always exact repeats. Identical values can stand only once.",
  "data": [
    {"smiles": "CO[C@H]1C(=O)[C@]2(C)[C@@H](OC)C[C@H]3OC[C@@]3(OC(C)=O)[C@H]2[C@H](OC(=O)c2ccccc2)[C@]2(O)C[C@H](OC(=O)[C@H](O)[C@@H](NC(=O)OC(C)(C)C)c3ccccc3)C(C)=C1C2(C)C", "note": "[Caba, cabazitaxel]", "values": [
      {"measurement": "Response (% of effect)", "setting": "22Rv1 cells [1]; Caba 0.25 nM alone", "value": 3.714, "unit": "%"},
      {"measurement": "Response (% of effect)", "setting": "22Rv1 cells [1]; Caba 0.5 nM alone", "value": "20.36% and 24.57%"},
      {"measurement": "Response (% of effect)", "setting": "22Rv1 cells [1]; Caba 1 nM alone", "value": "27.6928% and 30.03%"},
      {"measurement": "Response (% of effect)", "setting": "22Rv1 cells [1]; Caba 2 nM alone", "value": "32.86% and 33.2%"},
      {"measurement": "Response (% of effect)", "setting": "PC3-DR cells [2]; Caba 12.5 nM alone", "value": "26.4286% and 23.41%"},
      {"measurement": "Response (% of effect)", "setting": "PC3-DR cells [2]; Caba 25 nM alone", "value": "28.07% and 33.73%"},
      {"measurement": "Response (% of effect)", "setting": "PC3-DR cells [2]; Caba 50 nM alone", "value": "43.53% and 46.12%"},
      {"measurement": "Response (% of effect)", "setting": "PC3-DR cells [2]; Caba 100 nM alone", "value": "53.45% and 58.01%"}
    ]},
    {"smiles": "N.N.O=C([O-])C1(C(=O)[O-])CCC1.[Pt+2]", "note": "[Carbo, carboplatin]", "values": [
      {"measurement": "Response (% of effect)", "setting": "22Rv1 cells [1]; Carbo 12.5 μM alone", "value": "0.01% and 4.629%"},
      {"measurement": "Response (% of effect)", "setting": "22Rv1 cells [1]; Carbo 25 μM alone", "value": "11.3613% and 13.96%"},
      {"measurement": "Response (% of effect)", "setting": "22Rv1 cells [1]; Carbo 50 μM alone", "value": "22.27% and 31.0235%"},
      {"measurement": "Response (% of effect)", "setting": "22Rv1 cells [1]; Carbo 100 μM alone", "value": "32.94% and 38.66%"},
      {"measurement": "Response (% of effect)", "setting": "PC3-DR cells [2]; Carbo 6.25 μM alone", "value": "0.01% and 9.352%"},
      {"measurement": "Response (% of effect)", "setting": "PC3-DR cells [2]; Carbo 12.5 μM alone", "value": "6.12% and 8.386%"}
    ]},
    {"smiles": "N.N.[Cl][Pt][Cl]", "note": "[Cis, cisplatin]", "values": [
      {"measurement": "IC50", "setting": "22Rv1 cells [3]", "value": "0.993 ± 0.2", "unit": "µM"},
      {"measurement": "IC50", "setting": "DU145 cells", "value": "1.32 ± 0.31", "unit": "µM"},
      {"measurement": "IC50", "setting": "HEK293T cells", "value": "6.44 ± 0.65", "unit": "µM"},
      {"measurement": "IC50", "setting": "LNCaP cells", "value": "2.75 ± 0.39", "unit": "µM"},
      {"measurement": "IC50", "setting": "MRC-9 cells", "value": "6.75 ± 2.15", "unit": "µM"},
      {"measurement": "IC50", "setting": "PC3 cells", "value": "34.6 ± 6.62", "unit": "µM"},
      {"measurement": "IC50", "setting": "PC3-DR cells [4]", "value": "6.89 ± 2.29", "unit": "µM"},
      {"measurement": "IC50", "setting": "PNT2 cells", "value": "9.41 ± 1.82", "unit": "µM"},
      {"measurement": "IC50", "setting": "RWPE-1 cells", "value": "9.02 ± 1.52", "unit": "µM"},
      {"measurement": "IC50", "setting": "VCaP cells", "value": "5.02 ± 2.73", "unit": "µM"},
      {"measurement": "Selectivity index (SI)", "setting": "[5]", "value": 0.88},
      {"measurement": "Response (% of effect)", "setting": "22Rv1 cells [1]; Cis 2.5 μM alone", "value": "17.58% and 11.05%"},
      {"measurement": "Response (% of effect)", "setting": "22Rv1 cells [1]; Cis 5 μM alone", "value": "26.89% and 27.91%"},
      {"measurement": "Response (% of effect)", "setting": "22Rv1 cells [1]; Cis 10 μM alone", "value": "40.95% and 37.6%"},
      {"measurement": "Response (% of effect)", "setting": "PC3-DR cells [2]; Cis 1.25 μM alone", "value": "12.8% and 15.79%"},
      {"measurement": "Response (% of effect)", "setting": "PC3-DR cells [2]; Cis 2.5 μM alone", "value": "18.7% and 21.63%"},
      {"measurement": "Response (% of effect)", "setting": "PC3-DR cells [2]; Cis 5 μM alone", "value": "29.8412% and 29.49%"},
      {"measurement": "Response (% of effect)", "setting": "PC3-DR cells [2]; Cis 10 μM alone", "value": "50.19% and 51.55%"}
    ]}
  ]
}
